Entries after “also recorded” stand apart in the source; their conditions may differ. Read-outs that look alike come from different tables or passages of the source.
Tests used:
[1] = target: T1, M5 mAChR (Homo sapiens, UniProt P08912); test: Arachidonic acid (AA) release, M5; format: cell-based
T1 construct: expressed in transfected cells

[2] = tested on: adenosine, adrenergic, angiotensin, BZD, bradykinin, CCK, dopamine, opiate, serotonin and other receptors, ion channels, NE transporter; test: Binding panel of other receptors, channels and transporter (AF292); conditions: 10 μm
[3] = tested on: ischemic rats; test: Working memory (MWM) in ischemic rats; format: in vivo, Sprague Dawley rats; conditions: 0.5 mg/kg, po, chronic
Description: Transient ischemia in rats was induced by a modification of the ischemia model (Voll et et al, Stroke, 20: 1700–1706, 1989). This was done by a bilateral carotid artery occlusion in Sprague Dawley rats: (42 male, 3 months old, weighing 270–340 g) combined with reduction in blood pressure induced by sodium nitropruside. Ischemia was induced in 21 rats whereas the other 21 rats served as sham controls. Under pentobarbital anasthesia (30 mg/kg, ip), sodium nitropruside 4.8 mg/kg/hr) was infused through a cannula implanted in the tail vein, for a period of 25 min. Five min after the initiation of the infusion, at the time when mean blood pressure was maintained at 30–60 mmHg (intial levels ˜110 mm Hg) both carotid arteries were clamped for 20 min. Immediately afterwards 1.8 mEq sodium bicarbonate solution was administerd ip in order to minimize systemic acidosis. The sham operated rats were anesthetized as the ischemic rats and were infused with saline. […] In rats subjected to ischemia, a mortality of about 30% was recorded within 24 hr after surgery. […]
The ratio of escape latency (REL) and the ratio of path length (RPL) were calculated by the ratio of block no 2/block no 1 for each parameter. […] REL and RPL were analyzed by a 3-way ANOVA (2×2×3), with one repeated variable (weeks) and two non-repeated variables (Operation-ischemia/sham-operated and Treatment AF150(S)/DDW).

[4] = tested on: rabbits with nbm lesions; test: CSF and cortical Aβ in hypocholinergic (nbm-lesioned) rabbits; format: in vivo, New Zealand White rabbits; conditions: 4 weeks
Text: It is known that experimentally-induced cortical cholinergic denervation results in biochemical elevations of cortical Aβ concentrations and in histologic Aβ deposition (Beach et al, Neurosci Lett 283: 9–12, 2000), and that administration of muscarinic Ml-selective agents to normal animals decreases CSF AP concentrations {Beach et al Brain Res. 905: 220–223, 2001}.
Twenty-eight female New Zealand White rabbits, about 2.5 kg each (young adults) were used. Twenty-one received lesions of the cholinergic nucleus basalis magnocellularis (nbm). The lesion was accomplished with unilateral i.c.v. injections of an immunotoxin consisting of the ribosomal toxin saporin conjugated to the monoclonal antibody ME20.4, which is directed against the low-affinity neurotrophin receptor, p75. The ME20.4 antibody is made against monkey p75 and also recognizes rabbit p75. The dose of immunotoxin was 32.4 μg in 12 μl; this was delivered to the right lateral ventricle 2 mm lateral to the bregma. Seven animals received i.c.v. injections of sterile normal saline (sham lesion). Animals which received the immunotoxin were divided into 3 groups of 7. […] Another group received physostigmine hemisalicylate in normal saline by s.c. osmotic pump at a daily dose of 3 mg/kg. The third group received twice-daily sterile saline s.c. injections. The animals which received a sham lesion were implanted with s.c. osmotic pumps filled with sterile normal saline. Animals were euthanized 4 weeks after surgery. […] Cerebrospinal fluid was taken from the cisterna magna of all animals at the time of sacrifice; the brain was removed and sliced coronally into 0.5 cm slices. […] The other slices were frozen on sheets of dry ice (the other slices are the non-fixed 0.5 cm coronal slices of cerebrum, brainstem and cerebellum).

[5] = tested on: ApoE; test: ApoE synthesis and secretion in primary type 1 astrocytes; format: cell-based, rat
Description: Primary cultures of type 1 astrocytes were derived from the cortex of Sprague Dawley rats. The compounds tested were dissolved in the culture media and added to cells for 24, 48, 72 and 96 hrs. Media was then removed and kept frozen until ApoE protein levels were evaluated by immunoblot analysis as described in Poirier et al Neuroscience 55: 81–90 (1993). Alternatively the methods of Cedazo-Minuez et al [Neurosci 105: 651–661, 2001} may be employed.

[6] = tested on: AF64A-injected rats; test: Morris water maze in AF64A-injected rats; format: in vivo, Sprague-Dawley rats
Description: AF64A or saline-injected (6 months old) Sprague-Dawley rats were tested in the Morris Water Maze (MWM) task. The paradigm used assesses spatial learning abilities in a reference memory regimen, and involves training (days 1–4), transfer test (Probe trial—day 4, 3 min following the last training trial) and reversal test (day 5).
Drugs and PBS were administered once a day for 5 days before starting the behavioral testing, and then for the duration of the 5-day experiment, 30 min before testing.
The three measures, escape latency, path length and swimming speed were analyzed by MANOVA, followed by simple main effects contrast analysis.

[7] = Chronic toxicity up to 13 weeks, rat; format: in vivo, Wistar rat
[8] = tested on: GSK-3β; test: GSK-3β activity in rat hippocampal neurons; format: cell-based
Description: This study was performed in rat hippocampal primary cell cultures using the methods described by Garrido J L et al. (FASEB J 2002; 16:1982).

[9] = rat, in vivo, po
Description: (§1) This calculation was based on the brain weight (2 gr) vs. total plasma volume (14 ml).

[10] = in vivo; conditions: rat
Description: as §1

[11] = physchem
Description: as §1

[12] = pKa and free-base fraction of AF267B; conditions: pH=7.35 of CSF, calculated from pKa
Description: as §1

T1 sequence (P08912 whole entry): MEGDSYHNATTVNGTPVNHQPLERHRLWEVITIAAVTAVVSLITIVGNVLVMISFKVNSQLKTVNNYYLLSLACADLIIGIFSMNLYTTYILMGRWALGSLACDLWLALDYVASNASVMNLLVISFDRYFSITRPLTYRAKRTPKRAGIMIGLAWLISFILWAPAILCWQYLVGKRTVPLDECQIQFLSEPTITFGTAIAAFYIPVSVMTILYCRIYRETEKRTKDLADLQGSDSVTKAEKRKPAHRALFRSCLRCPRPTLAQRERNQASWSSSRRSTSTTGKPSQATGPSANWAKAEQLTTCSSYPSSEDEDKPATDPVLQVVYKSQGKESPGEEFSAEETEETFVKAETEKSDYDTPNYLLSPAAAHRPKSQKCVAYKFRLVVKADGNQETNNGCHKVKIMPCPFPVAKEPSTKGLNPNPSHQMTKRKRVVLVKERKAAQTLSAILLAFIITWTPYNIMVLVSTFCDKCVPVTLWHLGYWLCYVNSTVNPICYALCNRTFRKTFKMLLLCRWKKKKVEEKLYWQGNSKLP

With `CC[C@@H]1SC2(CCNCC2)NC1=O` [AF292, (S)-2-Ethyl-1-thia-4,8-diaza-spiro[4.5]decan-3-one] the “AA release, M5 mAChR, agonist activity” value [1] was “inactive as an agonist; also recorded: PI, AA: M5 mAChR - no effect as agonist” and the Binding to panel [2] was “no binding at all”.
In the case of `CC1=NCC2(CCN(C)CC2)S1` [AF150(S), 2,8-Dimethyl-1-thia-3,8-diaza-spiro[4.5]dec-2-ene], the “Working memory performance (REL and RPL)” value [3] is reported as “significantly improved working memory performance”.
For `CC[C@@H]1SC2(CCN(C)CC2)NC1=O` [AF267B, (S)-2-ethyl-8-methyl-1-thia-4,8-diaza-spiro[4.5]decan-3-one], the “CSF Aβ (4 kDa band)” value ([4]; 1 mg/kg s.c. twice daily) was “noticeable decrease”, the “CSF sAPPα band intensity” value ([4]; 1 mg/kg s.c. twice daily) was “no significant difference” and the “Histologic Aβ deposition, % of the lesioned, untreated group” value [4] was 12%. The inhibition at 0.0001 µM ([5]; Rattus norvegicus, Astrocyte, at 0.1 nM, read-out: Inhibition of ApoE production) was 60 to 80%, the ApoE production ([5]; up to 96 hrs) was “inhibits the production of ApoE” and the Reversal test ([6]; 1 mg/kg) was “tendency for improvement”. The “Training, escape latency” value ([6]; 1 mg/kg) was “tendency for improvement”, the Reversal test ([6]; 3 mg/kg) was “tendency for impairment” and the Training performance ([6]; 3 mg/kg) was “tended to impair performance”. The “Learning (training)” value ([6]; 0.3, 1, 3 mg/kg po) was “no significant effect on learning”, the “Probe trial, spatial bias (escape latency)” value ([6]; all doses) was “complete spatial bias” and the “Dose at which effects are seen” value [7] was > 40 mg/kg. For the same compound, the “GSK-3β activity vs. control in presence of Aβ fibrils” value ([8]; 10 μM, Aβ fibrils (10 μM) alone 370%) was 150%, the “Decrease of GSK-3β activity” value ([8]; 100 μm) was 60% and the “% of the compound found in the brain (Cmax brain/Cmax plasma)” value ([9]; female) was 16%. The “% of the compound found in the brain (Cmax brain/Cmax plasma)” value ([9]; male) was 25%, the Kp ([10]; female, iv, 1 mg/kg) was 1.32 and the Kp ([10]; female, po, 2 mg/kg) was 1.25. It also gave a Kp ([10]; male, iv, 1 mg/kg) of 1.79, a Kp ([10]; male, po, 2 mg/kg) of 2.43 and a pKa [11] of 7.8. For the same compound, the “% of compound in free base form” value [12] was 26.2%.

Source: US7049321B2, “Methods and pharmaceutical compositions for treatment of central and peripheral nervous system disorders and compounds useful therefor” (Israel Institute for Biological Research, priority 2002, dated 2006)
